In publication PMC10745768, “Stereoselective Synthesis and Antiproliferative Activity of Steviol-Based Diterpene 1,3-Aminoalcohol Regioisomers” (Molecules, 2023):
Read-outs that look alike come from different tables or passages of the source.

Experiments:
SiHa cells [1] = assay: MTT antiproliferative assay, SiHa; format: cell-based; conditions: Homo sapiens, 72 h; for inhibition at 10 µM / inhibition at 30 µM: read-out: Growth inhibition (%) ± SEM; for IC50: read-out: calculated IC50
Procedure, shortened: (§1)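 Human cancer lines and murine NIH/3T3 fibroblasts, the latter for selectivity, were grown in MEM with 10% FBS at 37 °C and treated for 72 h at two concentrations (10, 30 µM). Viability was measured by MTT reduction, with absorbance read at 545 nm.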

[2] = tested on: cancer cells and fibroblasts (HeLa, SiHa, MCF-7, MDA-MB-231, A2780, NIH/3T3); assay: MTT antiproliferative assay, cancer cells and fibroblasts; format: cell-based; conditions: Fibroblast; range over all six cell lines; read-out: IC50 values against both the cancer cells and fibroblasts
Procedure: The in vitro anticancer effects of the presented compounds were assessed using the standard MTT [3-(4,5-dimethylthiazol2-yl)-2,5-diphenyltetrazolium bromide] assay on the following human cancer cell lines: cervical (HeLa and SiHa), breast (MCF-7 and MDA-MB-231) and ovarian cancer (A2780). The selectivity of the tested compounds was determined on murine embryonal fibroblast cells (NIH/3T3). The utilised cell lines were purchased from the European Collection of Cell Cultures (Salisbury, UK). The cells were cultivated in Eagle’s minimal essential medium supplemented with 10% fetal bovine serum, 1% non-essential amino acids and 1% antibiotic-antimycotic complex (penicillin, streptomycin, amphotericin B) at 37 °C in a humidified atmosphere containing 5% CO2. All media and supplements were purchased from Lonza Group Ltd. (Basel, Switzerland). The cancer cells were seeded into 96-well plates (5000 cells/well) and incubated overnight, and the test compounds were applied in two different concentrations (10 µM and 30 µM) and incubated for another 72 h under cell-culturing conditions. […] After 72 h, 20 µL of the 5 mg/mL MTT solution was added to each well, and the plates were incubated for 4 h. […] The absorbances were measured at 545 nm using a microplate reader (SPECTROStar Nano, BMG Labtech, Offenburg, Germany). […] The IC50 values were calculated using sigmoid curve fitting. […]

A2780 cells [3] = assay: MTT antiproliferative assay, A2780; format: cell-based; conditions: Homo sapiens; for IC50: A2780, 72 h, read-out: calculated IC50; for inhibition at 10 µM: A2780, 10 μM; for inhibition at 10 µM / inhibition at 30 µM: 72 h, read-out: Growth inhibition (%) ± SEM; for inhibition at 30 µM: A2780, 30 μM
Procedure, shortened: as §1

MDA-MB-231 cells [4] = assay: MTT antiproliferative assay, MDA-MB-231; format: cell-based; conditions: Homo sapiens; for IC50: MDA-MB-231, 72 h, read-out: calculated IC50; for inhibition at 10 µM: MDA-MB-231, 10 μM; for inhibition at 10 µM / inhibition at 30 µM: 72 h, read-out: Growth inhibition (%) ± SEM; for inhibition at 30 µM: MDA-MB-231, 30 μM
Procedure, shortened: as §1

MCF-7 cells [5] = assay: MTT antiproliferative assay, MCF-7; format: cell-based; conditions: Homo sapiens, MCF7; for inhibition at 10 µM: MCF-7, 10 μM; for inhibition at 10 µM / inhibition at 30 µM: 72 h, read-out: Growth inhibition (%) ± SEM; for inhibition at 30 µM: MCF-7, 30 μM; for IC50: MCF-7, 72 h, read-out: calculated IC50
Procedure, shortened: as §1

NIH/3T3 fibroblast cells [6] = assay: MTT assay on non-malignant fibroblasts (selectivity); format: cell-based, murine; conditions: Mus musculus, NIH3T3; for inhibition at 10 µM: NIH/3T3, 10 μM; for inhibition at 10 µM / inhibition at 30 µM: 72 h, read-out: Growth inhibition (%) ± SEM; for inhibition at 30 µM: NIH/3T3, 30 μM; for IC50: NIH/3T3, 72 h, read-out: calculated IC50
Procedure, shortened: as §1

HeLa cells [7] = assay: MTT antiproliferative assay, HeLa; format: cell-based; conditions: Homo sapiens, 72 h; for inhibition at 10 µM / inhibition at 30 µM: read-out: Growth inhibition (%) ± SEM; for IC50: read-out: calculated IC50
Procedure, shortened: as §1

A2780 cells [8] = tested on: A2780 cells; parameters: method as in earlier work; conditions: ref 24 (Bai D, Int J Mol Sci 2023, 10.3390/ijms24021121), cited from earlier work
MCF-7 cells [9] = tested on: MCF-7 cells; parameters: method as in earlier work; conditions: ref 24 (Bai D, Int J Mol Sci 2023, 10.3390/ijms24021121), cited from earlier work
NIH/3T3 fibroblast cells [10] = tested on: NIH/3T3 fibroblast cells; parameters: method as in earlier work; conditions: ref 24 (Bai D, Int J Mol Sci 2023, 10.3390/ijms24021121), cited from earlier work
MDA-MB-231 cells [11] = tested on: MDA-MB-231 cells; parameters: method as in earlier work; conditions: ref 24 (Bai D, Int J Mol Sci 2023, 10.3390/ijms24021121), cited from earlier work
SiHa cells [12] = tested on: SiHa cells; parameters: method as in earlier work; conditions: ref 24 (Bai D, Int J Mol Sci 2023, 10.3390/ijms24021121), cited from earlier work
HeLa cells [13] = tested on: HeLa cells; parameters: method as in earlier work; conditions: ref 24 (Bai D, Int J Mol Sci 2023, 10.3390/ijms24021121), cited from earlier work

IC50 (A2780 cells [3]) [µM] | IC50 (MDA-MB-231 cells [4]) [nM] | IC50 (MCF-7 cells [5]) [nM] | IC50 (HeLa cells [7]) [µM] | SMILES | inhibition at 10 µM (SiHa cells [1]) [%] | inhibition at 30 µM (SiHa cells [1]) [%] | IC50 (SiHa cells [1]) [µM] | IC50 [2] [µM] | inhibition at 10 µM (A2780 cells [3]) [%] | inhibition at 30 µM (A2780 cells [3]) [%] | inhibition at 10 µM (MDA-MB-231 cells [4]) [%] | inhibition at 30 µM (MDA-MB-231 cells [4]) [%] | inhibition at 10 µM (MCF-7 cells [5]) [%] | inhibition at 30 µM (MCF-7 cells [5]) [%] | inhibition at 10 µM (NIH/3T3 fibroblast cells [6]) [%] | inhibition at 30 µM (NIH/3T3 fibroblast cells [6]) [%] | IC50 (NIH/3T3 fibroblast cells [6]) [µM] | inhibition at 10 µM (HeLa cells [7]) [%] | inhibition at 30 µM (HeLa cells [7]) [%] | also measured
4.39 | 3280 | 1590 | 5.07 | COC(=O)[C@]1(C)CCC[C@@]2(C)[C@@H]3CC[C@@]4(CNCc5ccc(F)cc5)C[C@]3(CC[C@@H]21)C[C@H]4O [Compound 23, (4R,4aS,6aR,8R,9S,11aR,11bS)-Methyl 9-(((4-fluorobenzyl)amino)methyl)-8-hydroxy-4,11b-dimethyltetradecahydro-6a,9-methanocyclohepta[a]naphthalene-4-carboxylate] | 68.1 ± 1.85 | 80.5 ± 3.16 | 4.41 | 1.59 to 5.15 | 80 ± 1.6 | 95.71 ± 0.58 | 92.99 ± 0.39 | 91.4 ± 0.39 | 95.81 ± 0.84 | 95.3 ± 1.05 | 81.8 ± 3.07 | 93.62 ± 0.77 | 5.15 | 70.1 ± 1.97 | 90.41 ± 0.78 | 
 |  |  |  | N.N.[Cl][Pt][Cl] [Cisplatin, cisplatin] |  |  |  |  |  |  |  |  |  |  |  |  |  |  |  | Growth inhibition (%) ± SEM (A2780 cells [8]; A2780, 10 μM): 83.57 ± 1.21%; Growth inhibition (%) ± SEM (A2780 cells [8]; A2780, 30 μM): 95.02 ± 0.28%; Growth inhibition (%) ± SEM (MCF-7 cells [9]; MCF-7, 10 μM): 53.03 ± 2.29%; Growth inhibition (%) ± SEM (MCF-7 cells [9]; MCF-7, 30 μM): 86.90 ± 1.22%; Growth inhibition (%) ± SEM (NIH/3T3 fibroblast cells [10]; NIH/3T3, 10 μM): 73.88 ± 1.63%; Growth inhibition (%) ± SEM (NIH/3T3 fibroblast cells [10]; NIH/3T3, 30 μM): 97.10 ± 0.15%; Growth inhibition (%) ± SEM (MDA-MB-231 cells [11]; MDA-MB-231, 10 μM): 67.51 ± 1.01%; Growth inhibition (%) ± SEM (MDA-MB-231 cells [11]; MDA-MB-231, 30 μM): 87.75 ± 1.10%; Growth inhibition (%) ± SEM (SiHa cells [12]; 10 μM): 60.98 ± 0.92%; Growth inhibition (%) ± SEM (SiHa cells [12]; 30 μM): 88.95 ± 0.53%; Growth inhibition (%) ± SEM (HeLa cells [13]; 10 μM): 42.61 ± 2.33%; Growth inhibition (%) ± SEM (HeLa cells [13]; 30 μM): 99.93 ± 0.26%
3.78 | 2300 | 1040 | 3.09 | COC(=O)[C@]1(C)CCC[C@@]2(C)[C@@H]3CC[C@@]4(CNCc5ccc(OC)cc5)C[C@]3(CC[C@@H]21)C[C@H]4O [Compound 32, (4R,4aS,6aR,8R,9S,11aR,11bS)-Methyl 8-hydroxy-9-(((4-methoxybenzyl)amino)methyl)-4,11b-dimethyltetradecahydro-6a,9-methanocyclohepta[a]naphthalene-4-carboxylate] | 95.6 ± 2.12 | 96.5 ± 1.09 | 5.77 | 1.04 to 5.77 | 97.94 ± 0.6 | 98.01 ± 0.6 | 97.12 ± 0.6 | 96.3 ± 1.02 | 99.59 ± 0.13 | 99.88 ± 0.23 | 96.93 ± 0.92 | 96.6 ± 1.05 | 3.71 | 97.09 ± 0.79 | 97.18 ± 0.76 | 
